Measurements from ChEMBL document CHEMBL1201862, “PubChem BioAssay data set” (2004).
Activity calls are given as the source filed them.

Legend:
[1] = target: T1, Replicative DNA helicase DnaB (Mycobacterium tuberculosis, UniProt P9WMR3); experiment: DnaB intein splicing inhibitors, dose response, biochemical, cell-free fluorescence (AID 449749); format: functional
T1 sequence (P9WMR3 whole entry): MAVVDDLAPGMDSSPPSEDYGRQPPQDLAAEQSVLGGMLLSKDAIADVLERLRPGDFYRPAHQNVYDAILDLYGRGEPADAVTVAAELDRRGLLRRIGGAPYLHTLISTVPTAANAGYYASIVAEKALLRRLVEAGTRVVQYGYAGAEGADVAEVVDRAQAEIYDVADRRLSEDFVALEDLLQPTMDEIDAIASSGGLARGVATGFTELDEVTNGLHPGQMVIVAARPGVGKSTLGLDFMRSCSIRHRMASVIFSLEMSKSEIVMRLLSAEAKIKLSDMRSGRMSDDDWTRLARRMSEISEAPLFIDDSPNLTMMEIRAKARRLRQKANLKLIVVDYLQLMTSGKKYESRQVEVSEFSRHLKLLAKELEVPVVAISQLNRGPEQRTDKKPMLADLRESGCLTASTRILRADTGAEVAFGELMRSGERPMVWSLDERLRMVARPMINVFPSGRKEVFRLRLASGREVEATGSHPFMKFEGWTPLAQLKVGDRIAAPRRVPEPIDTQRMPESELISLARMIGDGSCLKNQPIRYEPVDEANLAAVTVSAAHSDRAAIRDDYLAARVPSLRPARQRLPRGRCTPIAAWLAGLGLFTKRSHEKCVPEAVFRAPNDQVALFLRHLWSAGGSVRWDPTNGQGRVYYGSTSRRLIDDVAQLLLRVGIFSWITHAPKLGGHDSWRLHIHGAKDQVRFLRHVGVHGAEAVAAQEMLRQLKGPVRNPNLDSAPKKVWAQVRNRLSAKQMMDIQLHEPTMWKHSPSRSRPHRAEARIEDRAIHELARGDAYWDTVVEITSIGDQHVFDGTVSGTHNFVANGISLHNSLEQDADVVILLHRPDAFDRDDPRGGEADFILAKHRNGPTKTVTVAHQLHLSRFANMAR

Protein RecA = target: T2, Protein RecA (Mycobacterium tuberculosis, UniProt P9WHJ3); experiment: Fluorescence Cell-Free Homogeneous Dose Retest to Identify Inhibitors of RecA-Intein Splicing Activity. [Related pubchem assays (depositor defined):AID2097, AID2223, AID489010, AID492950]; format: functional
T2 sequence (P9WHJ3 whole entry): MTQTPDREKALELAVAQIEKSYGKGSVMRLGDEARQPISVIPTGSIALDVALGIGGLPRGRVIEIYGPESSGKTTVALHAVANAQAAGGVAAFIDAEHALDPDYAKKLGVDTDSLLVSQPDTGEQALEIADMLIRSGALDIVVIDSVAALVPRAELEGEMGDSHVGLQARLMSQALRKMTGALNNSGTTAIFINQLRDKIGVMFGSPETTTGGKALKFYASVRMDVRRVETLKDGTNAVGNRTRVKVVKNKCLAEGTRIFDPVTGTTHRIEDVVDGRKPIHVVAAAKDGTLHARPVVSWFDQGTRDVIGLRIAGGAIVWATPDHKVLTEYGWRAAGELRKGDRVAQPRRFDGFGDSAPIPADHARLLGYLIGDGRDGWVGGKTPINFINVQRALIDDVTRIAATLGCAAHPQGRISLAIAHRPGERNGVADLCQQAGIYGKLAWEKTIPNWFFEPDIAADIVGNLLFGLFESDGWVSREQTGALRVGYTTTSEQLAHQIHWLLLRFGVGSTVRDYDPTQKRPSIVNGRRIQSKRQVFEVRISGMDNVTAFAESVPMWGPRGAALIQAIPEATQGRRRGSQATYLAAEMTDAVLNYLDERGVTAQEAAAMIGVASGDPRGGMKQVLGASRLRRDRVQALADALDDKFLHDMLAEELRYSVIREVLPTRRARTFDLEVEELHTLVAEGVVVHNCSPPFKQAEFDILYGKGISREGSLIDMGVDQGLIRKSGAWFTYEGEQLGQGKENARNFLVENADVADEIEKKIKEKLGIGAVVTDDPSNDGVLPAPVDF

[2] = A549 cell cytotoxicity, dose response, cytotoxicity control, plate reader, cherry-pick, antagonist series (AID 743412); format: functional, cell-based
[3] = blockers of bursicon-stimulated LGR2 cAMP reporter – cell-based, HEK293, CRE-luciferase reporter, cherry pick, set 2, dose response (AID 743343); format: functional;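 note: transfected cells were stimulated with diluted bursicon conditioned medium after compound addition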
[4] = blockade of melanocortin 4 receptor signaling – cell-based, plate reader, cherry pick, counter-screen for LGR2 antagonist project, dose response (AID 743444); format: functional;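 note: transfected HEK 293 cells stimulated with alpha-MSH peptide; potency of inhibitors of the alpha-MSH evoked signal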
[5] = viability loss in HEK293 cells – cell-based, plate reader, cherry-picked samples, cytotoxicity control, dose response (AID 743446); format: functional
[6] = target: T3, Tyrosyl-DNA phosphodiesterase 2 (Homo sapiens, UniProt O95551); experiment: potency against TDP2 phosphodiesterase activity – biochemical, epi absorbance, IC50, dose response (AID 743297)
T3 sequence (O95551 whole entry): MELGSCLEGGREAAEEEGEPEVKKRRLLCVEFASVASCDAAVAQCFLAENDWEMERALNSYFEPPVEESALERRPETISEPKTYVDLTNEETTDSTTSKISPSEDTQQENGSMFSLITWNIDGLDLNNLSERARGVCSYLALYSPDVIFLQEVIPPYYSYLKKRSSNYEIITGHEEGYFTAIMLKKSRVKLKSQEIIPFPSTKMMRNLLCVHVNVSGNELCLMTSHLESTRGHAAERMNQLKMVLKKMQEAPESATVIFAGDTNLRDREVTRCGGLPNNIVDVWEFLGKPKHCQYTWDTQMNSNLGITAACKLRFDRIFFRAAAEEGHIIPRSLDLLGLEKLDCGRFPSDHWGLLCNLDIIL

Structure (SMILES)	AC50 [1]	EC50 (Protein RecA)	AC50 [2]	AC50 [3]	AC50 [4]	AC50 [5]	IC50 [6]
O=[N+]([O-])c1ccc(Sc2nc3ccccc3o2)c([N+](=O)[O-])c1	2.05 µM (active)	1.5 µM (active)	6.63 µM (active)	24.9 µM (active)	28.8 µM (active)	8.49 µM (active)	–
O=C1c2ccccc2C(=O)C12OC2c1cccc2ccccc12 (centres undefined)	–	–	–	–	–	–	5.07 µM (active)
CCC(COC)Oc1cc(NCc2ccccc2)c2ncn(C(C)C)c2c1 (centres undefined)	–	–	26.1 µM (active)	23.1 µM (active)	33.5 µM (active)	30.4 µM (active)	> 42.8 µM (inactive)
O=c1[nH]c(N2CCOCC2)cc2ccccc12	> 120 µM (inactive)	> 380 µM (inconclusive)	–	–	–	–	–
